Test results published in US8178077B2, “Drug development target protein and target gene, and method of screening” (Reverse Proteomics Research Institute Co., Ltd., priority 2004, dated 2012).

Target: T1, FLJ39196 clone-derived protein (human neurocalcin δ) (Homo sapiens, UniProt P61601)
T1 construct: A human full-length cDNA clone was expressed as a protein with an N-terminal His tag; His tag (N); made in house; host or cells: Escherichia coli BL21star(DE3)pLysS (pDEST17 Gateway expression plasmid)
Test: SEC/MS interaction analysis (size exclusion spin column and mass analysis) with FLJ39196 clone-derived protein
Format: binding
Text: To analyze the interactions between commonly used drugs and proteins expressed from human full-length cDNA clones while keeping both the proteins and the compounds in non-modified, non-immobilized state, size exclusion chromatography (SEC) and mass analysis were used in combination (FIGS. 1, 2). The specific procedures are shown below.
The compound-protein mixture prepared in step 1 was subjected to chromatography using an SEC column, the compound and the protein were separated by SEC, and the compound that interacted with the bound compound or protein contained in the protein fraction was analyzed using a mass analyzer.
Protein concentrations were measured using BCA Protein Assay (PIERCE), in consideration of the purity calculated by SDS-PAGE.
Mass analysis was performed using LCQ DECA XP (Thermoelectron) or Q-TOFmicro (Micromass), equipped with an ESI probe. The LC pump used was Agilent 1100 (Yokogawa Analytical Systems), and the autosampler used was HTC-PAL (CTC Analytics) equipped with a cooling stacker.
In the SEC method using 384-well spin columns, Unifilter 100 (Whatman), packed with 10 μL (dry volume) of Bio-Gel P6 (BIO-RAD) and swollen with milliQ water, was used as the SEC column. 13.3 μL of a protein-free reference standard or a 25 μM protein standard and 0.7 μL of a multiplied liquid comprising 25 μM of each pharmaceutical compound (5% DMSO aqueous solution) were mixed; 9 μL of this mixture was aliquoted into the SEC spin columns. The SEC spin column was mounted on an acetonitrile-aliquoted 384-well U-bottom plate and centrifuged; the SEC spin column filtrate, which is a protein fraction, was retrieved in 50% acetonitrile. The protein precipitate produced by the acetonitrile was removed via centrifugation and filtration for deproteinization; the resulting filtrate was concentrated by centrifugation and re-dissolved in 10 μL of 50% methanol to obtain a mass analysis sample. The mobile phase supplied to the mass analyzer was 0.1% formic acid/50% methanol solution in the positive ion mode, and 0.1% ammonia/50% methanol solution in the negative ion mode; these mobile phases were used at a flow rate of 40 μL/min. 2-μL of mass analysis samples were injected using an autosampler at 2-minute intervals; the mass spectral intensity of the compound was measured to obtain the spectral intensity of the pharmaceutical compound contained in the SEC spin column filtrate (protein fraction eluted from SEC).

[1] = protein 0 μM (protein-free reference), compound 1 μM
[2] = protein 0 μM (protein-free reference), compound 10 μM
[3] = protein 0 μM (protein-free reference), compound 100 μM
[4] = protein 0 μM (protein-free reference), compound 250 μM
[5] = protein 23.75 μM, compound 1 μM
[6] = protein 23.75 μM, compound 10 μM
[7] = protein 23.75 μM, compound 100 μM
[8] = protein 23.75 μM, compound 250 μM
[9] = protein 47.5 μM, compound 10 μM
[10] = protein 47.5 μM, compound 100 μM
[11] = protein 47.5 μM, compound 250 μM

| spectral intensity of the compound in the SEC spin column filtrate (protein fraction) [1] | spectral intensity of the compound in the SEC spin column filtrate (protein fraction) [2] | spectral intensity of the compound in the SEC spin column filtrate (protein fraction) [3] | spectral intensity of the compound in the SEC spin column filtrate (protein fraction) [4] | spectral intensity of the compound in the SEC spin column filtrate (protein fraction) [5] | spectral intensity of the compound in the SEC spin column filtrate (protein fraction) [6] | spectral intensity of the compound in the SEC spin column filtrate (protein fraction) [7] | spectral intensity of the compound in the SEC spin column filtrate (protein fraction) [8] | spectral intensity of the compound in the SEC spin column filtrate (protein fraction) (protein 47.5 μM, compound 1 μM) | spectral intensity of the compound in the SEC spin column filtrate (protein fraction) [9] | spectral intensity of the compound in the SEC spin column filtrate (protein fraction) [10] | spectral intensity of the compound in the SEC spin column filtrate (protein fraction) [11] | Compound |
| --- | --- | --- | --- | --- | --- | --- | --- | --- | --- | --- | --- | --- |
| 18341826 | 21106520 | 134902492 | 315067466 | 15884361 | 18323956 | 118321460 | 396979100 | 24572438 | 26691498 | 256481478 | 565679716 | CC(NCCC(c1ccccc1)c1ccccc1)c1ccccc1 (stereo not drawn) [Fendiline] |
| 57845690 | 59201705 | 138331819 | 1019443291 | 38801184 | 66148127 | 474717521 | 1437323119 | 54783295 | 82852252 | 1301876646 | 1766098462 | OCCN1CCN(CC/C=C2/c3ccccc3Sc3ccc(C(F)(F)F)cc32)CC1 [Flupentixol cis-(Z)] |
| 15652447 | 95722839 | 530918568 | 1025547751 | 10946604 | 88615018 | 727082711 | 1272226745 | 10185140 | 49245292 | 427303459 | 1448860391 | Cc1cc(-c2ccccc2)nnc1NCCN1CCOCC1 [Minaprine] |

Further lines, the compound ahead of its results:

| Compound | spectral intensity of the compound in the SEC spin column filtrate (protein fraction) [1] | spectral intensity of the compound in the SEC spin column filtrate (protein fraction) [2] | spectral intensity of the compound in the SEC spin column filtrate (protein fraction) [3] | spectral intensity of the compound in the SEC spin column filtrate (protein fraction) [4] | spectral intensity of the compound in the SEC spin column filtrate (protein fraction) [5] | spectral intensity of the compound in the SEC spin column filtrate (protein fraction) [6] | spectral intensity of the compound in the SEC spin column filtrate (protein fraction) [7] | spectral intensity of the compound in the SEC spin column filtrate (protein fraction) [8] | spectral intensity of the compound in the SEC spin column filtrate (protein fraction) (protein 47.5 μM, compound 1 μM) | spectral intensity of the compound in the SEC spin column filtrate (protein fraction) [9] | spectral intensity of the compound in the SEC spin column filtrate (protein fraction) [10] | spectral intensity of the compound in the SEC spin column filtrate (protein fraction) [11] |
| --- | --- | --- | --- | --- | --- | --- | --- | --- | --- | --- | --- | --- |
| CCc1oc2ccccc2c1C(=O)c1cc(Br)c(O)c(Br)c1 [Benzbromarone] | 231212 | 300847 | 378850 | 461737 | 357666 | 1258120 | 10722991 | 19795682 | 412022 | 1942184 | 29076230 | 43413619 |
| NS(=O)(=O)c1cc2c(cc1Cl)N=C(CSCc1ccccc1)NS2(=O)=O [Benzthiazide] | 271261 | 505597 | 1323031 | 1475428 | 361168 | 1095223 | 9348303 | 25333199 | 249695 | 1261413 | 16067473 | 28434802 |
| CC(C)COCC(CN(Cc1ccccc1)c1ccccc1)N1CCCC1 (stereo not drawn) [Bepridil] | 9581826 | 14048756 | 358168208 | 1566782176 | 7408112 | 35655439 | 771184721 | 1841002486 | 7866658 | 40680909 | 1156825217 | 1990085657 |
| CC(O)(CS(=O)(=O)c1ccc(F)cc1)C(=O)Nc1ccc(C#N)c(C(F)(F)F)c1 (stereo not drawn) [Bicaltamide] | 196020 | 269681 | 3889442 | 1804944 | 264437 | 914364 | 18349511 | 53664833 | 390946 | 4168309 | 24933110 | 112816687 |
| CN(C)CC/C=C1/c2ccccc2Sc2ccc(Cl)cc21 [Chlorprothixene] | 12908294 | 15368592 | 30558420 | 80321853 | 21615977 | 31548696 | 104338961 | 243359670 | 25013147 | 52145413 | 207034486 | 433637183 |
| CC(C)[C@@]1(NC(=O)[C@@H]2C[C@@H]3c4cccc5[nH]cc(c45)C[C@H]3N(C)C2)O[C@@]2(O)[C@@H]3CCCN3C(=O)[C@H](Cc3ccccc3)N2C1=O [Dihydroergocristine] | 25663523 | 10810305 | 75466444 | 137535150 | 68120944 | 327393156 | 910395859 | 871970698 | 95970671 | 593118709 | 1961163889 | 2985742521 |
